According to PMC7180948, “New Insights into 4-Anilinoquinazolines as Inhibitors of Cardiac Troponin I–Interacting Kinase (TNNi3K)” (Molecules, 2020):

Key:
Assay in all cases: biochemical
Set-up in all cases: KINOMEscan competition binding panel (Eurofins DiscoverX), single concentration, percent inhibition
Conditions in all cases: read-out: 15 at 1 µM % inhibition
CDC2L5 = target: T1, CDC2L5 (Homo sapiens, UniProt Q14004)
T1 construct: gene CDK13
Method in brief: (§1)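 KINOMEscan selectivity screen; >400 human kinases; compound at 1 µM, single concentration.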

AKT1 = AKT1 (Homo sapiens, UniProt P31749)
Method in brief: as §1

NIK = target: T2, NIK (Homo sapiens, UniProt Q99558)
T2 construct: gene MAP3K14
Method in brief: as §1

CAMK1 = CAMK1 (Homo sapiens, UniProt Q14012)
Method in brief: as §1

CAMK1G = CAMK1G (Homo sapiens, UniProt Q96NX5)
Method in brief: as §1

DDR1 = DDR1 (Homo sapiens, UniProt Q08345)
Method in brief: as §1

LKB1 = target: T3, LKB1 (Homo sapiens, UniProt Q15831)
T3 construct: gene STK11
Method in brief: as §1

RET(V804M) = RET(V804M) (Homo sapiens, UniProt P07949, V804M)
Method in brief: as §1

ERK8 = target: T4, ERK8 (Homo sapiens, UniProt Q8TD08)
T4 construct: gene MAPK15
Method in brief: as §1

ULK2 = ULK2 (Homo sapiens, UniProt Q8IYT8)
Method in brief: as §1

CDC2L1 = target: T5, CDC2L1 (Homo sapiens, UniProt P21127)
T5 construct: gene CDK11B
Method in brief: as §1

PRKCH = PRKCH (Homo sapiens, UniProt P24723)
Method in brief: as §1

LTK = LTK (Homo sapiens, UniProt P29376)
Method in brief: as §1

EGFR(L747-T751del,Sins) = EGFR(L747-T751del,Sins) (Homo sapiens, UniProt P00533, DEL747-750/T751S)
Method in brief: as §1

LYN = LYN (Homo sapiens, UniProt P07948)
Method in brief: as §1

CLK2 = CLK2 (Homo sapiens, UniProt P49760)
Method in brief: as §1

AXL = AXL (Homo sapiens, UniProt P30530)
Method in brief: as §1

IRAK3 = IRAK3 (Homo sapiens, UniProt Q9Y616)
Method in brief: as §1

MELK = MELK (Homo sapiens, UniProt Q14680)
Method in brief: as §1

CDKL1 = CDKL1 (Homo sapiens, UniProt Q00532)
Method in brief: as §1

CSK = CSK (Homo sapiens, UniProt P41240)
Method in brief: as §1

CLK4 = CLK4 (Homo sapiens, UniProt Q9HAZ1)
Method in brief: as §1

KIT(V559D,T670I) = KIT(V559D,T670I) (Homo sapiens, UniProt P10721, T670I/V559D)
Method in brief: as §1

PIK4CB = target: T6, PIK4CB (Homo sapiens, UniProt Q9UBF8)
T6 construct: gene PI4KB
Method in brief: as §1

T5 sequence (P21127 whole entry): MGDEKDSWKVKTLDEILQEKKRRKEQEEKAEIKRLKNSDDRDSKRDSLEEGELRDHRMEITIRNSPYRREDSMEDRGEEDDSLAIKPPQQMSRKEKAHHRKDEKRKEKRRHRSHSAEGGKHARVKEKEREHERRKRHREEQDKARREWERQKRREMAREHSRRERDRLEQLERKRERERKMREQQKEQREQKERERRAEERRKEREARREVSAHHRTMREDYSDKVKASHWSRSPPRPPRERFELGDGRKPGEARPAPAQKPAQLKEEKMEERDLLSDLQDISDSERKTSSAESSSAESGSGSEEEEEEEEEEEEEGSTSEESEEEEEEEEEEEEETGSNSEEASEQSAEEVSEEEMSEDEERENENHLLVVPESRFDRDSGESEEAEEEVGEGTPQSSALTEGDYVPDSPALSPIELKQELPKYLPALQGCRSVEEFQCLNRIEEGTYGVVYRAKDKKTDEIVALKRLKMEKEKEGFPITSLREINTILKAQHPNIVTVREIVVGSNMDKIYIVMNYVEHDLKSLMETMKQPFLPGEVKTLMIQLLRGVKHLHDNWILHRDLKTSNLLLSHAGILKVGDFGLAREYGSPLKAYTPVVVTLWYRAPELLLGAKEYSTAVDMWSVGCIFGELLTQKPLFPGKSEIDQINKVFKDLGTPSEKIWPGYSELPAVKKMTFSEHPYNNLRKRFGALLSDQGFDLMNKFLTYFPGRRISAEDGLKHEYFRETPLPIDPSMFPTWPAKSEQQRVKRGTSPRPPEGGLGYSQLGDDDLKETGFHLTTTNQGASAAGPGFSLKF
Chain of IRAK3 (Q9Y616 whole entry): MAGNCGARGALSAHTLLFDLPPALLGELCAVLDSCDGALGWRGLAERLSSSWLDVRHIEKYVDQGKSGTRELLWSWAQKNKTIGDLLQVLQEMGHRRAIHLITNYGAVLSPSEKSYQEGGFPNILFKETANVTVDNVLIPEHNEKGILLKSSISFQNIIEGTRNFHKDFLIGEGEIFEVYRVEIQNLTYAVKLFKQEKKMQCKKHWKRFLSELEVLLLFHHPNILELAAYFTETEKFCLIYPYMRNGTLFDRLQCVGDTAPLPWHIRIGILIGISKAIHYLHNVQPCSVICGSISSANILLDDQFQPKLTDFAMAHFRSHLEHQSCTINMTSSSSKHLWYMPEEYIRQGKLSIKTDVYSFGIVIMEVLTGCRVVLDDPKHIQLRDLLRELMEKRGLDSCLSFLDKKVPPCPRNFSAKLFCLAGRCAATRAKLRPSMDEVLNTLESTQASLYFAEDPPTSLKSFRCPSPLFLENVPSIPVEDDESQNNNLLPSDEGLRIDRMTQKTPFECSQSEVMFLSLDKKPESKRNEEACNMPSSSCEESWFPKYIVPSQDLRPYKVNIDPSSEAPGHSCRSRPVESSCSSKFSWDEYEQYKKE
Chain of MELK (Q14680 whole entry): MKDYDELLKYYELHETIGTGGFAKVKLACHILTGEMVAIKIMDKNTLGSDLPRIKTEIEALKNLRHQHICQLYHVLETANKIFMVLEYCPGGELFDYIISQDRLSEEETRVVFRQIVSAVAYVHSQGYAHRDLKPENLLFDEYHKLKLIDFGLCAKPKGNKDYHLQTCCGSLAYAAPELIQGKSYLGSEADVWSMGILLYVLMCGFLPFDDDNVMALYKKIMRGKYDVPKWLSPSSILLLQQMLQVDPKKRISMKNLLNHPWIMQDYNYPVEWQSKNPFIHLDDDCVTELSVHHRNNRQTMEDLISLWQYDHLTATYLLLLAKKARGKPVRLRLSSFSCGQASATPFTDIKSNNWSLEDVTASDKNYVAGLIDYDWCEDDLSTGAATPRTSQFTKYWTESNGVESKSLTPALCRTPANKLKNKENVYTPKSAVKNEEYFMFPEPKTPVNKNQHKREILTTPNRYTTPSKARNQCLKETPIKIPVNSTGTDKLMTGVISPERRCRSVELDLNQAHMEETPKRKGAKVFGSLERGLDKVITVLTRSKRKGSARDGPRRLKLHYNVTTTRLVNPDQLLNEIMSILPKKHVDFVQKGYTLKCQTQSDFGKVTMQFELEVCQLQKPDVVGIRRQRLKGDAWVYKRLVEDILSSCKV
T6 sequence (Q9UBF8 whole entry): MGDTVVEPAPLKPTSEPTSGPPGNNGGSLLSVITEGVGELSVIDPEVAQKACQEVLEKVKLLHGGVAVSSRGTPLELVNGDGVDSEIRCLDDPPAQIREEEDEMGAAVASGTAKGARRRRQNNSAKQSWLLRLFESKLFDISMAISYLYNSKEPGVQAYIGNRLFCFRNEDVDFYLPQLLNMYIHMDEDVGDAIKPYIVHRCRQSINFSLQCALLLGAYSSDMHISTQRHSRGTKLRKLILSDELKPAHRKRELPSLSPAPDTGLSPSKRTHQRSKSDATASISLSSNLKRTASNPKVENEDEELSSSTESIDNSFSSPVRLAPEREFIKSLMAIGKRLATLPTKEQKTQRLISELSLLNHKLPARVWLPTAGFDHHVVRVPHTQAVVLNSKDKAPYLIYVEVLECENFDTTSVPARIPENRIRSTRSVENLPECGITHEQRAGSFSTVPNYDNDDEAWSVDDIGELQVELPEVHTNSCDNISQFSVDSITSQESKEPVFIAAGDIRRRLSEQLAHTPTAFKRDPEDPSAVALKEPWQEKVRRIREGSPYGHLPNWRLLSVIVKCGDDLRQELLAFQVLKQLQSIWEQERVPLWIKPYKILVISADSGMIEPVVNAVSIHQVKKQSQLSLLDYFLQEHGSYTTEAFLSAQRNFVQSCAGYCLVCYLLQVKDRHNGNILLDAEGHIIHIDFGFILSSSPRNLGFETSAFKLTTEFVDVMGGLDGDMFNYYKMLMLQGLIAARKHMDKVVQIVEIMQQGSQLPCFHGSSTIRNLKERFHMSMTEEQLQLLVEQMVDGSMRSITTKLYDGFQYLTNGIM
Chain of EGFR(L747-T751del,Sins) (P00533 with tags, fused parts or gaps DEL747-750/T751S): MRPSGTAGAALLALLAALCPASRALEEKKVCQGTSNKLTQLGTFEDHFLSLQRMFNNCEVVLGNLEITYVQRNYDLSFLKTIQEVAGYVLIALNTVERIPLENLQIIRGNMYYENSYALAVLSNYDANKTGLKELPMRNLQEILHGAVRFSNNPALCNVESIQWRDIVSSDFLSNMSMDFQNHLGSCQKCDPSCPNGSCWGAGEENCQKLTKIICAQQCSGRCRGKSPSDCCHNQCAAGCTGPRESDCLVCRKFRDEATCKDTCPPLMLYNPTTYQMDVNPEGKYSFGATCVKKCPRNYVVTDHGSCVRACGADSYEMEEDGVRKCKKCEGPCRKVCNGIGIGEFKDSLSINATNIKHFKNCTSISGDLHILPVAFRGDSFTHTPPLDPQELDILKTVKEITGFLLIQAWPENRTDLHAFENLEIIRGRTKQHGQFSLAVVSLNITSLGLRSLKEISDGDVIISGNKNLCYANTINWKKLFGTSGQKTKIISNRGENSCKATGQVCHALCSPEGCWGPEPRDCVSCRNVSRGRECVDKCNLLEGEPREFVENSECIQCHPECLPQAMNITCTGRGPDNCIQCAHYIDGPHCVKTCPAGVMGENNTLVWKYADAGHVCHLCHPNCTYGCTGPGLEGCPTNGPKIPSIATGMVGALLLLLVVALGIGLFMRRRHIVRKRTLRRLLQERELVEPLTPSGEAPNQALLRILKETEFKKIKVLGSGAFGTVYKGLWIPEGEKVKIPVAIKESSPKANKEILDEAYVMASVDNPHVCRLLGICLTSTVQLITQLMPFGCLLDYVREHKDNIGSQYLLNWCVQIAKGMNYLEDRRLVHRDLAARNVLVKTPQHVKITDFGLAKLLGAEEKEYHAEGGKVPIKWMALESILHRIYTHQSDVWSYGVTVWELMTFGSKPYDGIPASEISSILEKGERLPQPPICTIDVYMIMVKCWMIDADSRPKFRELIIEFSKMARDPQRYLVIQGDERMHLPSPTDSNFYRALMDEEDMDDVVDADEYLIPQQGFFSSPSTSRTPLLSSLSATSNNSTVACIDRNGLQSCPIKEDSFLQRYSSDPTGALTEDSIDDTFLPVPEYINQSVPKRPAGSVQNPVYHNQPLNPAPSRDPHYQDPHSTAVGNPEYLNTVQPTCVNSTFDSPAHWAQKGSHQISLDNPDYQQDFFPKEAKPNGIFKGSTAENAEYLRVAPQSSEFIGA
Chain of DDR1 (Q08345 whole entry): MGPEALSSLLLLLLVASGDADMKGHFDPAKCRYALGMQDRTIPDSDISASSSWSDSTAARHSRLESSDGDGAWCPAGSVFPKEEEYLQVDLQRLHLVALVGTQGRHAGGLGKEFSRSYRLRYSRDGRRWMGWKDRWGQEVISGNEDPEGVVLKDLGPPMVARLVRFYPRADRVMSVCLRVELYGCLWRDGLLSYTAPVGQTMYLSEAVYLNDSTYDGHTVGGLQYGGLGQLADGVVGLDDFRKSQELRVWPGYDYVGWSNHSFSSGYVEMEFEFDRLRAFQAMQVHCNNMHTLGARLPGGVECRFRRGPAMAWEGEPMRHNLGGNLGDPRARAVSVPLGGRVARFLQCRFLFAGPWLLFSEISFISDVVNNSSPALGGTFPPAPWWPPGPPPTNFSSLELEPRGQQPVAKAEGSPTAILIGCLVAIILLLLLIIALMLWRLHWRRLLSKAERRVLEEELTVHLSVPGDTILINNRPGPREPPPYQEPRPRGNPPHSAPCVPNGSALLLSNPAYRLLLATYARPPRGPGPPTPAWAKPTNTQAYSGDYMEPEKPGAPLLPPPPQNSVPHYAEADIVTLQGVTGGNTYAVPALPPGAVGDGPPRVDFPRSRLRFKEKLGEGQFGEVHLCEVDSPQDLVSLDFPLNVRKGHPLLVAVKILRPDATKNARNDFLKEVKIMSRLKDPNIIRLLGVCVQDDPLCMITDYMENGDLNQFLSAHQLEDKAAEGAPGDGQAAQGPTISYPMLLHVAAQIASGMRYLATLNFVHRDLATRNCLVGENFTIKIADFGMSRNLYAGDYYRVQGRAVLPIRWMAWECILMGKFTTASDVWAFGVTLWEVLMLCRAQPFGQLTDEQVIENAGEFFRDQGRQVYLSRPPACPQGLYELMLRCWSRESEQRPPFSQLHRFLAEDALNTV

CNS(=O)(=O)c1ccc(N(C)C)c(Nc2nc(C)nc3cc(OC)c(OC)cc23)c1 [compound 15, 3-((6,7-dimethoxy-2-methylquinazolin-4-yl)amino)-4-(dimethylamino)-N-methylbenzenesulfonamide]
inhibition at 1 µM (CDC2L5): 23%
inhibition at 1 µM (AKT1): 0%
inhibition at 1 µM (NIK): 12%
inhibition at 1 µM (CAMK1): 0%
inhibition at 1 µM (CAMK1G): 0%
inhibition at 1 µM (DDR1): 0%
inhibition at 1 µM (LKB1): 0%
inhibition at 1 µM (RET(V804M)): 0%
inhibition at 1 µM (ERK8): 0%
inhibition at 1 µM (ULK2): 9%
inhibition at 1 µM (CDC2L1): 7%
inhibition at 1 µM (PRKCH): 0%
inhibition at 1 µM (LTK): 12%
inhibition at 1 µM (EGFR(L747-T751del,Sins)): 0%
inhibition at 1 µM (LYN): 0%
inhibition at 1 µM (CLK2): 0%
inhibition at 1 µM (AXL): 9%
inhibition at 1 µM (IRAK3): 3%
inhibition at 1 µM (MELK): 0%
inhibition at 1 µM (CDKL1): 2%
inhibition at 1 µM (CSK): 2%
inhibition at 1 µM (CLK4): 5%
inhibition at 1 µM (KIT(V559D,T670I)): 0%
inhibition at 1 µM (PIK4CB): 12%
